Consider one sequence from patent US10912815B2, “Inhibitors of mitochondrial fission and methods of use thereof” (The Board of Trustees of the Leland Stanford Junior …, priority 2011, dated 2021).

The test system of experiment [1] is SH-SY5Y cells. The experiment is described as follows: Total ROS production in SH-SY5Y cells (CM-H2DCFDA). It counts as cell-based, human. The following applies: MPP+ and CCCP 24 hrs, FIG. 6E. Here is the method: (§1) The effects of MPP+ or CCCP on translocation of Drp1 in the absence and presence of P110 was measured using confocal microscopy. Cultured SH-SY5Y cells in black 96-well plate were treated with Drp1 peptide inhibitor P110 (1 μM) 30 min prior to treatment of MPP+ (2 mM) or CCCP (5 uM). After 2 hrs of treatment, cells were stained with MITOSOX™ (red mitochondrial superoxide indicator) (5 uM, for 10 min, mitochondrial ROS) or TMRM (0.5 uM, for 20 min, MMP) at 37° C. For total ROS detection, cells were treated with MPP+ or CCCP for 24 hrs. ROS level was measured by CM-H2DCFDA (1 μM for 30 min, Invitrogen). Cells were washed with PBS for three times. The detection was performed in a fluorescence microplate reader (Tecan, Infinite M1000) according to manufacturer's instructions. Measurements were normalized to the cell number counted using Hoechst staining.
(§2) Mitochondrial membrane potential was also determined using TMRM (tetramethylrhodamine methylester). […] Fluoresence detection was performed using black 96-well plates in a fluorescence microplate reader at 560 nm excitation and 690 nm emission and potential was assessed by quenching of the fluorescent signal. […] A kinetic change of mitochondrial superoxide production was determined by using MITOSOX™ (red mitochondrial superoxide indicator). […]

In experiment [2] the test system is isolated mouse liver mitochondria with Drp1 recombinant protein. Put plainly: Membrane potential of isolated mouse liver mitochondria incubated with Drp1 (TMRM). It counts as biochemical. Particulars: P110 1 μM, NAC 2.5 mM, FIG. 6D bottom. As to the method:
Mitochondrial membrane potential was also determined using TMRM (tetramethylrhodamine methylester). Fifty μg of mitochondria were incubated with recombinant Drp1 (50 ng) followed by incubation with TMRM (0.5 μM) in the presence or absence of P110 (1 μM) or NAC (2.5 mM). Fluoresence detection was performed using black 96-well plates in a fluorescence microplate reader at 560 nm excitation and 690 nm emission and potential was assessed by quenching of the fluorescent signal. The data are presented as mean±S.E. of percentage relative to control mitochondria from three independent experiments (FIG. 6B, #, p<0.05 vs. control cells; *, p<0.05; **, P<0.01 vs. MPP+- or CCCP-treated cells). Isolated mouse liver mitochondria (50 μg) were incubated with Drp1 recombinant protein (50 ng) in the presence or absence of P110 (1 μM). A kinetic change of mitochondrial superoxide production was determined by using MITOSOX™ (red mitochondrial superoxide indicator). The data are presented as mean±S.E. of percentage relative to the value at basal level from three independent experiments (FIG. 6C, #, p<0.05 vs. control mitochondria; *, p<0.05 vs. mitochondria with the addition of Drp1). Mitochondrial membrane potential of isolated mouse liver mitochondria was determined by TMRM, as described above, in the indicated groups. NAC (2.5 mM) was used as a positive control (FIG. 6D). Protein levels of cytochrome c in the mitochondria were determined by western blot analysis with anti-cytochrome c antibodies in the indicated groups (insert, FIG. 6D). Total ROS production was determined by staining SH-SY5Y cells with CM2HDCFA (1 μM […] at 37° C.) in the indicated groups. The data are presented as mean±S.E. of percentage relative to control group from three independent experiments (FIG. 6E, *, p<0.05 vs. either MPP+ or CCCP treated-group; #, p<0.05 vs. control group).
The mitochondrial membrane potential of isolated mouse liver mitochondria was then measured in the presence or absence of P110.

Experiment [3] concerns SH-SY5Y cells. The experiment is described as follows: Mitochondrial membrane potential in SH-SY5Y cells (TMRM). In kind it is cell-based, human. The following applies: SH-SY5Y in the presence of MPP+ or CCCP, FIG. 6B. Here is the method: as §1, §2
Experiment [4] concerns mitochondrial electron transport chain (complexes I-V). The experiment is described as follows: Mitochondrial complex I-V assembly in SH-SY5Y cells (western blot). In kind it is cell-based, human. The following applies: SH-SY5Y treated with MPP+, FIG. 8. As to the method:
The oxidative phosphorylation system in the mitochondria is responsible for generating ATP and consists of five major membrane protein complexes, the mitochondrial complexes I-V. MPP+ is a specific mitochondrial complex I inhibitor. P110 was tested for potential effects on MPP+-induced defects in mitochondrial complexes. […] The lower panel is a histogram in which the quantitative data generated from the western blot are expressed as mean±S.E. of 3 independent experiments.

Experiment [5] deals with Primary rat dopaminergic neurons. Put plainly: Mitochondrial superoxide production in primary dopaminergic neurons exposed to MPP+. The following applies: P110 1 μM, MPP+ 1 μM, 2 hrs, FIG. 10A. It counts as cell-based. Here is the method:
Primary rat dopaminergic neurons (cultured for 6 days) were treated without or with P110 (1 μM) followed by treatment with or without MPP+(1 μM). Two hrs following MPP+ treatment, the cells were stained with MITOSOX™ red (to measure mitochondrial superoxide production) and anti-TH antibody (a marker of dopaminergic neurons). Fifteen hrs after MPP+ treatment, cells were stained with anti-TH antibody and anti-Tom20 antibody (a marker of mitochondria).

A further experiment has as its target Drp1/Fis1 interaction (Homo sapiens, UniProt O00429). The experiment is described as follows: Direct binding between recombinant Drp1 and Fis1 (immunoprecipitation). Particulars: peptides 1 μM each, Drp1 50 ng, Fis1 50 ng, FIG. 2D. As to the method: In another set of experiments, Drp1 was incubated with Fis1 and the complex was immunoprecipitated using anti-Drp1 antibody followed by immunoblotting with anti-Fis1 antibody. For direct binding between Drp1 and Fis1, recombinant Drp1 (50 ng) and Fis1 (50 ng) were incubated in PBS containing 1 mM DSP for 30 min in the presence or absence of Drp1/Fis1 peptides (1 μM each) or control peptide TAT. After termination of the reaction by 50 mM Tris-HCl, pH 7.5, reaction mixtures were subjected to immunoprecipitation with anti-Fis1 antibody in the presence of 1% Triton X-100. Immunoprecipitates were washed with PBS containing 1% Triton X-100 and analyzed by SDS-PAGE and subsequent immunoblotting with antibodies to Fis1 and Drp1.

For experiment [6], the system named is SH-SY5Y cells. Put plainly: Autophagy marker LC3 in SH-SY5Y cells. It counts as cell-based, human. Particulars: MPP+. An excerpt:
Autophagy is another consequence of excessive mitochondrial fission (Twig et al., 2008, EMBO J 27:433-446; Wikstrom et al., 2009, Int J Biochem Cell Biol 41:1914-1927). Autophagy can be measured by the induction of the autophagic marker LC3 (microtubule-associated protein 1, light chain 3, also known as ATG8). Cultured SH-SY5Y cells were stained by anti-LC3 antibodies and nuclei were stained by Hoechsts staining. A histogram (FIG. 9C) depicts the number of LC3-positive punctate/per cell in the indicated groups. The data are presented as the mean±S.E. of three independent experiments. Western blot analysis of LC3 I/II with anti-LC3 antibodies is shown and is presented as a histogram where the data are expressed as mean±S.E. of three independent experiments (FIG. 9D, left panel).

No end group written: not given here.

Chain of Drp1/Fis1 interaction (O00429 1-710 isoform O00429-3): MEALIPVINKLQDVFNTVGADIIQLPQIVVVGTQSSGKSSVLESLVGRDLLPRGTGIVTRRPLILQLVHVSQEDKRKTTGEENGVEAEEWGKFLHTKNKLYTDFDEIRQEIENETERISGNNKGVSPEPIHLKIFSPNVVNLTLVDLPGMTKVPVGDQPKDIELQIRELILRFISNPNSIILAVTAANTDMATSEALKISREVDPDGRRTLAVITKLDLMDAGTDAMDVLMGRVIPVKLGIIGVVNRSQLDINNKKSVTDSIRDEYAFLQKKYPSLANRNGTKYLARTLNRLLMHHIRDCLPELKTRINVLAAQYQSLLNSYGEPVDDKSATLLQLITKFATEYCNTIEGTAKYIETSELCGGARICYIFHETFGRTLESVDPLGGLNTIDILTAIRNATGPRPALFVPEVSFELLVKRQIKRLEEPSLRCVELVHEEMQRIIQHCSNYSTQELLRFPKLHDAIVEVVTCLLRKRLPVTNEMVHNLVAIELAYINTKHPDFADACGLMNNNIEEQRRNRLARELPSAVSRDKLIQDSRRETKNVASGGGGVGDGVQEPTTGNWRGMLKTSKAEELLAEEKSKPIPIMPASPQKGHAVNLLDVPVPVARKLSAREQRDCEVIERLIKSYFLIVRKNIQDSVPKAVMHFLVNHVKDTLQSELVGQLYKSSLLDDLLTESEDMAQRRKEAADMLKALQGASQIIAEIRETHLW

In the case of “RRRQRRKKRGYGGDLLPRGS (RRRQRRKKRGYGGDLLPRGS-NH2) [P110, TAT47-57 carrier, GG linker, Drp1 region 110 (GTPase domain) peptide DLLPRGS; C-terminus C(O)-NH2]”, the “total ROS produced by the mitochondrial stressors” value with SH-SY5Y cells [1] was “greatly reduced”. Besides, the “mitochondrial membrane potential (MMP) of isolated mitochondria after Drp1 addition” value in experiment [2] is reported as “improved the MMP”. Besides, the “mitochondrial membrane potential (MMP)” value in the experiment on SH-SY5Y cells [3] is recorded as “significantly recovered”. Besides, in experiment [4], the “MPP+-induced reduction of NDUFB8 (complex I) and MTCOI (complex IV)” value is listed as “abolished the reduction of these two proteins”; the “assembly of the mitochondrial electron transport chain (ETC)” value is given as “improved the assembly”. In addition, the “mitochondrial ROS (superoxide) production” value in experiment [5] is “reduced”. In addition, the “Drp1-Fis1 interaction, recombinant proteins” value with Drp1/Fis1 interaction is listed as “blocked”. In the experiment with SH-SY5Y cells [6] (FIG. 9C), the “number of LC3-positive puncti in the cells” value is listed as “reduced”. The “LC3 cleavage (LC3 I to LC3 II)” value with SH-SY5Y cells [6] (FIG. 9D) is “reduced”.
